A word on the IC50: it is the concentration that gives 50% inhibition. A high value points to weaker potency in that assay. By IC75 is commonly meant the concentration at which the effect reaches the 75% level. In general, IC90 refers to the point of the concentration-response curve where the effect stands at 90%. The low end stands for an effect from little substance, the high end for a need for much substance.

The test system of one assay is H460 cells. The assay is classed as cell-based.
In another assay the test system is A549 cells. The assay is classed as cell-based.
Where [1] appears, read: H460 cells, MTT, 5 days incubation.
[2] abbreviates: A549 cells, MTT, 5 days incubation.

SMILES strings stand for the structures. Read-outs that look alike come from different tables or passages of the source.

With `O=[As][O-].[Na+]` [Sodium Meta Arsenite, sodium meta arsenite], in the assay on H460 cells, the IC50 was 10 µM, the IC75 is 20 µM and the IC90 came out at 30 µM. In the assay with A549 cells, this molecule returned an IC50 of 13 µM, an IC75 of 19 µM and an IC90 of 17 µM.
In the assay with H460 cells (setting [1]), `N.N.[Cl][Pt][Cl]` [Cisplatin, cis-diamminedichloroplatinum (II), reference compound] had an IC75 of 1.7 µM and an IC90 of 2.5 µM. This molecule also registered an IC50 in the assay on H460 cells (H460 non-small cell lung cancer cells, MTT, 5 days incubation) of 1 µM. In the assay on A549 cells (setting [2]), this molecule had an IC75 of 2 µM and an IC90 of 4 µM.

(Values after patent publication US20180055812A1, “METHOD AND COMPOSITIONS FOR TREATMENT OF CANCER” (priority 2008, published 2018).)
